# Results published in PubChem BioAssay (NCI).
#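 96-well plates; 48 h exposure; 5 concentrations. Endpoints by linear interpolation between flanking doses. Not reached: highest tested concentration assigned. The concentration for 50% growth inhibition is given as GI50. Definition used: TGI = concentration required for complete inhibition of growth.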
# How the values were obtained:
# Test in all cases: DTP human tumour cell line panel, 48 h
# 786-0 renal = system: 786-0 renal
# A498 renal = system: A498 renal
# A549 NSCLC = system: A549 NSCLC
# ACHN renal = system: ACHN renal
# BT-549 breast = system: BT-549 breast
# CAKI-1 renal = system: CAKI-1 renal
# CCRF-CEM leukemia = system: CCRF-CEM leukemia
# COLO 205 colon = system: COLO 205 colon
# DU-145 prostate = system: DU-145 prostate
# EKVX NSCLC = system: EKVX NSCLC
# HCC-2998 colon = system: HCC-2998 colon
# HCT-116 colon = system: HCT-116 colon
# HCT-15 colon = system: HCT-15 colon
# HL-60(TB) leukemia = system: HL-60(TB) leukemia
# HOP-62 NSCLC = system: HOP-62 NSCLC
# HOP-92 NSCLC = system: HOP-92 NSCLC
# HS 578T breast = system: HS 578T breast
# HT29 colon = system: HT29 colon
# IGROV1 ovarian = system: IGROV1 ovarian
# K-562 leukemia = system: K-562 leukemia
# KM12 colon = system: KM12 colon
# LOX IMVI melanoma = system: LOX IMVI melanoma
# M14 melanoma = system: M14 melanoma
# MALME-3M melanoma = system: MALME-3M melanoma
# MCF7 breast = system: MCF7 breast
# MDA-MB-231 breast = system: MDA-MB-231 breast
# MDA-MB-435 = system: MDA-MB-435
# MOLT-4 leukemia = system: MOLT-4 leukemia
# NCI-H226 lung = system: NCI-H226 lung
# NCI-H460 lung = system: NCI-H460 lung
# NCI-H522 lung = system: NCI-H522 lung
# NCI/ADR-RES ovarian = system: NCI/ADR-RES ovarian
# OVCAR-3 ovarian = system: OVCAR-3 ovarian
# OVCAR-4 ovarian = system: OVCAR-4 ovarian
# OVCAR-5 ovarian = system: OVCAR-5 ovarian
# OVCAR-8 ovarian = system: OVCAR-8 ovarian
# PC-3 prostate = system: PC-3 prostate
# RPMI-8226 leukemia = system: RPMI-8226 leukemia
# RXF 393 renal = system: RXF 393 renal
# SF-268 CNS = system: SF-268 CNS
# SF-295 CNS = system: SF-295 CNS
# SF-539 CNS = system: SF-539 CNS
# SK-MEL-2 melanoma = system: SK-MEL-2 melanoma
# SK-MEL-28 melanoma = system: SK-MEL-28 melanoma
# SK-MEL-5 melanoma = system: SK-MEL-5 melanoma
# SK-OV-3 ovarian = system: SK-OV-3 ovarian
# SN12C renal = system: SN12C renal
# SNB-19 CNS = system: SNB-19 CNS
# SNB-75 CNS = system: SNB-75 CNS
# SR leukemia = system: SR leukemia
# SW-620 colon = system: SW-620 colon
# T-47D breast = system: T-47D breast
# TK-10 renal = system: TK-10 renal
# U251 CNS = system: U251 CNS
# UACC-257 melanoma = system: UACC-257 melanoma
# UACC-62 melanoma = system: UACC-62 melanoma
# UO-31 renal = system: UO-31 renal
structure (smiles),measurement,setting,value
O=C(CSc1nc2ccccc2c(=O)n1-c1ccc(Cl)cc1)N/N=C/c1ccc(Oc2ccc(Cl)cc2)cc1,GI50,786-0 renal,2.51 µM
same,TGI,786-0 renal,6.42 µM
same,GI50,A498 renal,1.94 µM
same,TGI,A498 renal,4.35 µM
same,GI50,A549 NSCLC,3.25 µM
same,TGI,A549 NSCLC,14 µM
same,GI50,ACHN renal,4.36 µM
same,TGI,ACHN renal,15.2 µM
same,GI50,BT-549 breast,3.28 µM
same,TGI,BT-549 breast,12.2 µM
same,GI50,CAKI-1 renal,3.06 µM
same,TGI,CAKI-1 renal,12 µM
same,GI50,CCRF-CEM leukemia,3.09 µM
same,TGI,CCRF-CEM leukemia,48.5 µM
same,GI50,COLO 205 colon,2.79 µM
same,TGI,COLO 205 colon,8.74 µM
same,GI50,DU-145 prostate,3.52 µM
same,TGI,DU-145 prostate,20.4 µM
same,GI50,EKVX NSCLC,3.1 µM
same,TGI,EKVX NSCLC,13.9 µM
same,GI50,HCC-2998 colon,1.92 µM
same,TGI,HCC-2998 colon,3.81 µM
same,GI50,HCT-116 colon,1.55 µM
same,TGI,HCT-116 colon,3.74 µM
same,GI50,HCT-15 colon,2.41 µM
same,TGI,HCT-15 colon,7.49 µM
same,GI50,HL-60(TB) leukemia,16 µM
same,TGI,HL-60(TB) leukemia,37 µM
same,GI50,HOP-62 NSCLC,1.69 µM
same,TGI,HOP-62 NSCLC,4.05 µM
same,GI50,HOP-92 NSCLC,2.07 µM
same,TGI,HOP-92 NSCLC,5.62 µM
same,GI50,HS 578T breast,2.17 µM
same,TGI,HS 578T breast,6.36 µM
same,GI50,HT29 colon,2.14 µM
same,TGI,HT29 colon,11.1 µM
same,GI50,IGROV1 ovarian,1.51 µM
same,TGI,IGROV1 ovarian,3.28 µM
same,GI50,K-562 leukemia,4.15 µM
same,TGI,K-562 leukemia,20.2 µM
same,GI50,KM12 colon,2.04 µM
same,TGI,KM12 colon,5 µM
same,GI50,LOX IMVI melanoma,1.29 µM
same,TGI,LOX IMVI melanoma,2.59 µM
same,GI50,M14 melanoma,1.58 µM
same,TGI,M14 melanoma,3.47 µM
same,GI50,MALME-3M melanoma,1.38 µM
same,TGI,MALME-3M melanoma,2.77 µM
same,GI50,MCF7 breast,2.01 µM
same,TGI,MCF7 breast,5.5 µM
same,GI50,MDA-MB-231 breast,1.79 µM
same,TGI,MDA-MB-231 breast,3.9 µM
same,GI50,MDA-MB-435,1.93 µM
same,TGI,MDA-MB-435,4.56 µM
same,GI50,MOLT-4 leukemia,2.29 µM
same,TGI,MOLT-4 leukemia,9.23 µM
same,GI50,NCI-H226 lung,2.46 µM
same,TGI,NCI-H226 lung,6.59 µM
same,GI50,NCI-H460 lung,0.788 µM
same,TGI,NCI-H460 lung,2.6 µM
same,GI50,NCI-H522 lung,2.34 µM
same,TGI,NCI-H522 lung,8.31 µM
same,GI50,NCI/ADR-RES ovarian,1.64 µM
same,TGI,NCI/ADR-RES ovarian,3.56 µM
same,GI50,OVCAR-3 ovarian,2.75 µM
same,TGI,OVCAR-3 ovarian,9.55 µM
same,GI50,OVCAR-4 ovarian,1.89 µM
same,TGI,OVCAR-4 ovarian,4.57 µM
same,GI50,OVCAR-5 ovarian,2.27 µM
same,TGI,OVCAR-5 ovarian,6.44 µM
same,GI50,OVCAR-8 ovarian,2.41 µM
same,TGI,OVCAR-8 ovarian,6.56 µM
same,GI50,PC-3 prostate,2.58 µM
same,TGI,PC-3 prostate,9.32 µM
same,GI50,RPMI-8226 leukemia,2.98 µM
same,TGI,RPMI-8226 leukemia,15.8 µM
same,GI50,RXF 393 renal,1.7 µM
same,TGI,RXF 393 renal,3.14 µM
same,GI50,SF-268 CNS,3.85 µM
same,TGI,SF-268 CNS,23.9 µM
same,GI50,SF-295 CNS,3.61 µM
same,TGI,SF-295 CNS,13.3 µM
same,GI50,SF-539 CNS,2.54 µM
same,TGI,SF-539 CNS,6.32 µM
same,GI50,SK-MEL-2 melanoma,2.86 µM
same,TGI,SK-MEL-2 melanoma,8.93 µM
same,GI50,SK-MEL-28 melanoma,1.51 µM
same,TGI,SK-MEL-28 melanoma,3.01 µM
same,GI50,SK-MEL-5 melanoma,1.75 µM
same,TGI,SK-MEL-5 melanoma,3.51 µM
same,GI50,SK-OV-3 ovarian,3.26 µM
same,TGI,SK-OV-3 ovarian,11.9 µM
same,GI50,SN12C renal,1.74 µM
same,TGI,SN12C renal,4.14 µM
same,GI50,SNB-19 CNS,3.36 µM
same,TGI,SNB-19 CNS,12.7 µM
same,GI50,SNB-75 CNS,3.99 µM
same,TGI,SNB-75 CNS,29.2 µM
same,GI50,SR leukemia,1.84 µM
same,TGI,SR leukemia,6.86 µM
same,GI50,SW-620 colon,1.81 µM
same,TGI,SW-620 colon,7.84 µM
same,GI50,T-47D breast,2.09 µM
same,TGI,T-47D breast,5.76 µM
same,GI50,TK-10 renal,5.97 µM
same,TGI,TK-10 renal,40.2 µM
same,GI50,U251 CNS,1.65 µM
same,TGI,U251 CNS,3.69 µM
same,GI50,UACC-257 melanoma,4.62 µM
same,TGI,UACC-257 melanoma,22.5 µM
same,GI50,UACC-62 melanoma,1.59 µM
same,TGI,UACC-62 melanoma,3.18 µM
same,GI50,UO-31 renal,7.47 µM
same,TGI,UO-31 renal,21.1 µM
